Source: publication PMC10713630, “Elucidation of the structural basis for ligand binding and translocation in conserved insect odorant receptor co-receptors” (Nature Communications, 2023)
Several values for one entry are separate records, joined by “and”; a condition that tells them apart may be missing. Identical values can stand only once. Entries after “also recorded” stand apart in the source; their conditions may differ.

Key:
DmelOrco Y390A = DmelOrco Y390A (Drosophila melanogaster, UniProt Q9VNB5, Y390A); assay: TEVC recording of VUAA1-induced current, DmelOrco Y390A in Xenopus oocytes; type: cell-based; conditions: 500 µM VUAA1, TEVC
DmelOrco Y390A, sequence (Q9VNB5 whole entry Y390A, the tested form may be a part): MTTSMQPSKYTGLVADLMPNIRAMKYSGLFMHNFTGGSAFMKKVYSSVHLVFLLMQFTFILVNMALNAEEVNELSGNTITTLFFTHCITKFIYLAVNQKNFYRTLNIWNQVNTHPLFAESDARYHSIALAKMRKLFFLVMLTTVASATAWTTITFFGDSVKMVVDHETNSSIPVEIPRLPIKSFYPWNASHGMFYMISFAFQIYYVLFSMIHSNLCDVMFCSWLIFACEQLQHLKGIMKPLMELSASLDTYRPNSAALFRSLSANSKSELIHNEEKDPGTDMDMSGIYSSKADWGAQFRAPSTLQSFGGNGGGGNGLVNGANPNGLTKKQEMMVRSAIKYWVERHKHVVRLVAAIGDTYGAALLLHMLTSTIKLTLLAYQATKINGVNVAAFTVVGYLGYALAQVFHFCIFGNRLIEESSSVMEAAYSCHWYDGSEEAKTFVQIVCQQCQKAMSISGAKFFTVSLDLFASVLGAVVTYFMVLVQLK
Excerpt: (§1) All Orco gene sequences were optimized[63] for protein expression in Xenopus laevis oocytes with the GenSmartTM Codon optimization Tool and subcloned into a pGEMHE-derived vector. The wildtype gene of Drosophila melanogaster Orco (DmelOrco) was synthesized by Genscript and subcloned with XmaI/XhoI cloning sites. Site-directed mutagenesis of DmelOrco was done by PCR with the Q5® site directed mutagenesis kit (NEB) using primers optimized with the NEBase Changer online tool and following the supplier’s protocol. After transformation of commercial competent bacteria (XL10 Gold) by standard heat-shock protocol and overnight culture in ampicillin-containing LB plates, positive clones were identified by electrophoretic restriction profile and external sequencing (Genewiz). DNAs of positive clones were amplified with Qiagen MidiPrep Kit and the ORF was fully sequenced. For in vitro transcription, DNAs were linearized with restriction enzyme NotI that cuts a unique site in the 3′ region of the polyA tail. […] DNA and RNA were analyzed by agarose-gel electrophoresis and quantified by spectrophotometry. […]
(§2) Whole cell currents were recorded with the two-electrode voltage-clamp (TEVC) technique with the HiClamp robot (MultiChannel System). […] Data were extracted with M. Vivaudou’s programs[65] and statistically analyzed with Prism 8 (Graphpad).

DmelOrco I79A = DmelOrco I79A (Drosophila melanogaster, UniProt Q9VNB5, I79A); assay: TEVC recording of VUAA1-induced current, DmelOrco I79A in Xenopus oocytes; type: cell-based; design: VUAA1-induced current, i79A: unit not given here
DmelOrco I79A, sequence (Q9VNB5 whole entry I79A, the tested form may be a part): as the sequence (Q9VNB5 whole entry Y390A, the tested form may be a part) above, with I79A, A390Y counted along it
Excerpt: as §1, §2

DmelOrco T80A = DmelOrco T80A (Drosophila melanogaster, UniProt Q9VNB5, T80A); assay: TEVC recording of VUAA1-induced current, DmelOrco T80A in Xenopus oocytes; type: cell-based; design: VUAA1-induced current, T80A: unit not given here
DmelOrco T80A, sequence (Q9VNB5 whole entry T80A, the tested form may be a part): as the sequence (Q9VNB5 whole entry Y390A, the tested form may be a part) above, with T80A, A390Y counted along it
Excerpt: as §1, §2

DmelOrco W150A = DmelOrco W150A (Drosophila melanogaster, UniProt Q9VNB5, W150A); assay: TEVC recording of VUAA1-induced current, DmelOrco W150A in Xenopus oocytes; type: cell-based; design: VUAA1-induced current, W150A: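 current amplitude in µA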
DmelOrco W150A, sequence (Q9VNB5 whole entry W150A, the tested form may be a part): as the sequence (Q9VNB5 whole entry Y390A, the tested form may be a part) above, with W150A, A390Y counted along it
Excerpt: as §1, §2

DmelOrco I181A = DmelOrco I181A (Drosophila melanogaster, UniProt Q9VNB5, I181A); assay: TEVC recording of VUAA1-induced current, DmelOrco I181A in Xenopus oocytes; type: cell-based; design: VUAA1-induced current, i181A: unit not given here
DmelOrco I181A, sequence (Q9VNB5 whole entry I181A, the tested form may be a part): as the sequence (Q9VNB5 whole entry Y390A, the tested form may be a part) above, with I181A, A390Y counted along it
Excerpt: as §1, §2

DmelOrco I181W = DmelOrco I181W (Drosophila melanogaster, UniProt Q9VNB5, I181W); assay: TEVC recording of VUAA1-induced current, DmelOrco I181W in Xenopus oocytes; type: cell-based; design: VUAA1-induced current, i181W: unit not given here
DmelOrco I181W, sequence (Q9VNB5 whole entry I181W, the tested form may be a part): as the sequence (Q9VNB5 whole entry Y390A, the tested form may be a part) above, with I181W, A390Y counted along it
Excerpt: as §1, §2

DmelOrco V206W = DmelOrco V206W (Drosophila melanogaster, UniProt Q9VNB5, V206W); assay: TEVC recording of VUAA1-induced current, DmelOrco V206W in Xenopus oocytes; type: cell-based; design: VUAA1-induced current, V206W: unit not given here; conditions: for VUAA1-induced current, V206W: individual oocytes
DmelOrco V206W, sequence (Q9VNB5 whole entry V206W, the tested form may be a part): as the sequence (Q9VNB5 whole entry Y390A, the tested form may be a part) above, with V206W, A390Y counted along it
Excerpt: (§3) All Orco gene sequences were optimized[63] for protein expression in Xenopus laevis oocytes with the GenSmartTM Codon optimization Tool and subcloned into a pGEMHE-derived vector. The wildtype gene of Drosophila melanogaster Orco (DmelOrco) was synthesized by Genscript and subcloned with XmaI/XhoI cloning sites. Site-directed mutagenesis of DmelOrco was done by PCR with the Q5® site directed mutagenesis kit (NEB) using primers optimized with the NEBase Changer online tool and following the supplier’s protocol. After transformation of commercial competent bacteria (XL10 Gold) by standard heat-shock protocol and overnight culture in ampicillin-containing LB plates, positive clones were identified by electrophoretic restriction profile and external sequencing (Genewiz). DNAs of positive clones were amplified with Qiagen MidiPrep Kit and the ORF was fully sequenced. For in vitro transcription, DNAs were linearized with restriction enzyme NotI that cuts a unique site in the 3′ region of the polyA tail. The linearized DNAs were purified by the standard phenol:chloroform extraction method and transcribed into mRNA using the T7 ultra mMessage mMachine kit (Thermo Fisher Scientific). mRNAs were purified with the NucleoSpin RNA plus XS kit (Machery-Nagel). DNA and RNA were analyzed by agarose-gel electrophoresis and quantified by spectrophotometry.
(§4) Xenopus laevis oocytes were prepared, as previously described. Briefly, oocytes were defolliculated after surgical retrieval by type 1 A collagenase over 2-3 h under smooth horizontal agitation. They were manually selected and incubated at 19 °C in modified-Barth’s solution (1 mM KCl, 0.82 mM MgSO4, 88 mM NaCl, 2.4 mM NaHCO3, 0.41 mM CaCl2, Ca(NO3)2 0.3 mM, 16 mM HEPES, pH 7.4) supplemented with 100 U mL^−1 of penicillin and streptomycin and 0.1 mg mL^−1 of gentamycin. Each oocyte was micro-injected with the Nanoject instrument (Drummond) with 50 nL of 20 ng of mRNA coding for the Orco of interest. Injected oocytes were incubated individually in 96-well plates for 4 days at 19 °C in the same buffer. Different batches of oocytes have been tested per construct. The results of the mutants of interest have been confirmed by a second set of experiments comparing the amplitudes with WT in the same day and from the same batch of oocytes (Supplementary Fig. 11).
Whole cell currents were recorded with the two-electrode voltage-clamp (TEVC) technique with the HiClamp robot (MultiChannel System). Microelectrodes were filled with 3 M KCl. The high K^+ buffer used for recordings was composed of 91 mM KCl, 1 mM MgCl2, 1.8 mM CaCl2, 5 mM HEPES, pH 7.4. Membrane voltage was clamped to −50 mV and VUAA1 was applied for 60 s. Data were extracted with M. Vivaudou’s programs[65] and statistically analyzed with Prism 8 (Graphpad).

DmelOrco F84A = DmelOrco F84A (Drosophila melanogaster, UniProt Q9VNB5, F84A); assay: TEVC recording of VUAA1-induced current, DmelOrco F84A in Xenopus oocytes; type: cell-based
DmelOrco F84A, sequence (Q9VNB5 whole entry F84A, the tested form may be a part): as the sequence (Q9VNB5 whole entry Y390A, the tested form may be a part) above, with F84A, A390Y counted along it
Excerpt: as §3
(§5) Xenopus laevis oocytes were prepared, as previously described. Briefly, oocytes were defolliculated after surgical retrieval by type 1 A collagenase over 2-3 h under smooth horizontal agitation. They were manually selected and incubated at 19 °C in modified-Barth’s solution (1 mM KCl, 0.82 mM MgSO4, 88 mM NaCl, 2.4 mM NaHCO3, 0.41 mM CaCl2, Ca(NO3)2 0.3 mM, 16 mM HEPES, pH 7.4) supplemented with 100 U mL^−1 of penicillin and streptomycin and 0.1 mg mL^−1 of gentamycin. […]
as §2

DmelOrco F84W = DmelOrco F84W (Drosophila melanogaster, UniProt Q9VNB5, F84W); assay: TEVC recording of VUAA1-induced current, DmelOrco F84W in Xenopus oocytes; type: cell-based; conditions: 500 µM VUAA1, TEVC
DmelOrco F84W, sequence (Q9VNB5 whole entry F84W, the tested form may be a part): as the sequence (Q9VNB5 whole entry Y390A, the tested form may be a part) above, with F84W, A390Y counted along it
Excerpt: as §1, §2

DmelOrco S146A = DmelOrco S146A (Drosophila melanogaster, UniProt Q9VNB5, S146A); assay: TEVC recording of VUAA1-induced current, DmelOrco S146A in Xenopus oocytes; type: cell-based
DmelOrco S146A, sequence (Q9VNB5 whole entry S146A, the tested form may be a part): as the sequence (Q9VNB5 whole entry Y390A, the tested form may be a part) above, with S146A, A390Y counted along it
Excerpt: as §1, §2

DmelOrco S146V = DmelOrco S146V (Drosophila melanogaster, UniProt Q9VNB5, S146V); assay: TEVC recording of VUAA1-induced current, DmelOrco S146V in Xenopus oocytes; type: cell-based
DmelOrco S146V, sequence (Q9VNB5 whole entry S146V, the tested form may be a part): as the sequence (Q9VNB5 whole entry Y390A, the tested form may be a part) above, with S146V, A390Y counted along it
Excerpt: as §3, §5, §2

DmelOrco S146W = DmelOrco S146W (Drosophila melanogaster, UniProt Q9VNB5, S146W); assay: TEVC recording of VUAA1-induced current, DmelOrco S146W in Xenopus oocytes; type: cell-based; conditions: 500 µM VUAA1, TEVC
DmelOrco S146W, sequence (Q9VNB5 whole entry S146W, the tested form may be a part): as the sequence (Q9VNB5 whole entry Y390A, the tested form may be a part) above, with S146W, A390Y counted along it
Excerpt: as §1, §2

DmelOrco Y400S = DmelOrco Y400S (Drosophila melanogaster, UniProt Q9VNB5, Y400S); assay: TEVC recording of VUAA1-induced current, DmelOrco Y400S in Xenopus oocytes; type: cell-based; conditions: 500 µM VUAA1, TEVC
DmelOrco Y400S, sequence (Q9VNB5 whole entry Y400S, the tested form may be a part): as the sequence (Q9VNB5 whole entry Y390A, the tested form may be a part) above, with A390Y, Y400S counted along it
Excerpt: as §1, §2

non-injected oocytes = assay: TEVC recording, negative control (NC) oocytes, non-injected or water-injected; type: cell-based, Xenopus laevis; conditions: Fig.4b; individual oocytes; in µA
Description: as §4
Whole cell currents were recorded with the two-electrode voltage-clamp (TEVC) technique with the HiClamp robot (MultiChannel System). Microelectrodes were filled with 3 M KCl. The high K^+ buffer used for recordings was composed of 91 mM KCl, 1 mM MgCl2, 1.8 mM CaCl2, 5 mM HEPES, pH 7.4. […] Data were extracted with M. Vivaudou’s programs[65] and statistically analyzed with Prism 8 (Graphpad).

AgamOrco/AgamOR65 = conditions: AgamOrco/AgamOR65; ref Tailor et al. 1; cited from earlier work
MhraOR5 = tested on: MhraOR5; design: method as in PMID 34349260; conditions: cited from earlier work
MdesOrco H81F = conditions: H81 replaced by phenylalanine; cited from earlier work

CCc1ccc(NC(=O)CSc2nnc(-c3cccnc3)n2CC)cc1 [VUAA1, N-(4-ethylphenyl)−2-((4-ethyl-5-(3-pyridinyl)−4H-1,2,4-triazol-3-yl)thio)acetamide]
Response to VUAA1 compared with WT (DmelOrco Y390A): did not show significant change | Response to VUAA1 compared with WT (DmelOrco I79A; 500 µM VUAA1, TEVC, I79A): did not significantly affect the amplitude of activation | VUAA1-induced current, i79A (DmelOrco I79A; Fig.4b, individual oocytes): 1.26 and 4.71 and 3.65 and 1.07 and 3.06 and 3.49 and 3.19 and 0.68 and 2.72 and 3.85 | Response to VUAA1 compared with WT (DmelOrco T80A; 500 µM VUAA1, TEVC, T80A): did not significantly affect the amplitude of activation | VUAA1-induced current, T80A (DmelOrco T80A; Fig.4b, individual oocytes): 2.4 and 1.22 and 3.78 and 5.59 and 4.73 and 0.91 and 2.46 and 0.65 and 0.56 and 4.38 and 3.16 and 5.8 | Response to VUAA1 compared with WT (DmelOrco W150A; 500 µM VUAA1, TEVC, W150A): did not significantly affect the amplitude of activation | VUAA1-induced current, W150A (DmelOrco W150A; Fig.4b, individual oocytes): 4.32 and 3.86 and 5.79 and 2.71 and 5.07 and 2.76 and 2.23 and 2.97 and 2.04 and 1.54 and 0.79 and 4.84 and 4.06 and 8 | Response to VUAA1 compared with WT (DmelOrco I181A; 500 µM VUAA1, TEVC, I181A): did not significantly affect the amplitude of activation | VUAA1-induced current, i181A (DmelOrco I181A; Fig.4b, individual oocytes): 2.04 and 7.33 and 5.46 and 2.9 and 2.3 and 1.5 and 5.38 and 11.56 and 4.17 and 3.69 | Response to VUAA1 compared with WT (DmelOrco I181W; 500 µM VUAA1, TEVC, I181W): significantly reduced or abolished the activation; also recorded: clear loss of VUAA1 activation | VUAA1-induced current, i181W (DmelOrco I181W; Fig.4b, individual oocytes): 0.52 and 0.99 and 0.9 and 0.42 and 0.27 and 1.33 and 0.95 and 0.29 and 0.18 and 1.75 and 2.06 and 1.1 and 0.66 and 0.22 and 0.14 and 0.54 and 0.08 | Response to VUAA1 compared with WT (DmelOrco V206W; 500 µM VUAA1, TEVC, V206W): significantly reduced or abolished the activation; also recorded: significant decrease in the response | VUAA1-induced current, V206W (DmelOrco V206W; Fig.4b): 0.24 and 0.29 and 1.03 and 0.65 and 0.59 and 0.7 and 0.64 and 0.44 and 0.27 | VUAA1-induced current, V206W (DmelOrco V206W; Fig.4i dose-response, VUAA1 10 µM (Log(M) -5)): 0.05 and 0.36 and 0.03 and 0.04 (2×) and 0.02 (2×) and 0.01 | VUAA1-induced current, V206W (DmelOrco V206W; Fig.4i dose-response, VUAA1 25 µM (Log(M) -4.6)): 0.02 (2×) and 0.37 and 0.05 and 0.04 and 0.03 (3×) | VUAA1-induced current, V206W (DmelOrco V206W; Fig.4i dose-response, VUAA1 50 µM (Log(M) -4.3)): 0.01 and 0.48 and 0.1 and 0.04 (2×) and 0.05 (2×) and 0.03 | VUAA1-induced current, V206W (DmelOrco V206W; Fig.4i dose-response, VUAA1 100 µM (Log(M) -4)): 0.01 and 0.59 and 0.18 and 0.05 and 0.19 and 0 and 0.22 and 0.1 | VUAA1-induced current, V206W (DmelOrco V206W; Fig.4i dose-response, VUAA1 500 µM (Log(M) -3.3)): 0.07 (2×) and 0.56 and 0.2 and 0.4 and 0.09 and 0.5 and 0.18 | VUAA1-induced current, V206W (DmelOrco V206W; Fig.4i dose-response, VUAA1 1000 µM (Log(M) -3)): 0.12 and 0.59 and 0.2 and 0.07 and 0.5 and 0.11 and 0.61 and 0.24 | Imax (DmelOrco V206W; concentration-effect curve of VUAA1, TEVC, V206W): 0.33 µA | EC50 (DmelOrco F84A): 105 µM | Current induced by VUAA1 (median) (DmelOrco F84A; 500 µM VUAA1, TEVC, F84A): 0.68 µA | Imax (DmelOrco F84A; concentration-effect curve of VUAA1, TEVC, F84A): 1.01 µA | Response to VUAA1 compared with WT (DmelOrco F84W): did not induce a significant change | Current induced by VUAA1 (median) (DmelOrco S146A; 500 µM VUAA1, TEVC, S146A): 7.55 µA | Effect on VUAA1-induced channel response (DmelOrco S146A; DmelOrco S146A): I | EC50 (DmelOrco S146V): 82.2 µM | Current induced by VUAA1 (median) (DmelOrco S146V; 500 µM VUAA1, TEVC, S146V): 11.68 µA | Imax (DmelOrco S146V; concentration-effect curve of VUAA1, TEVC, S146V): 6.99 µA | Response to VUAA1 compared with WT (DmelOrco S146W): significant decrease in the response | Response to VUAA1 compared with WT (DmelOrco Y400S): did not significantly change the response | VUAA1-induced current, NC (non-injected oocytes): 0.05 and 0.03 and 0.3 and 0.19 and 0.39 and 0.02 | EC50 (AgamOrco/AgamOR65): 37 µM | Activation of MhraOR5 (MhraOR5): not by VUAA1 | Response of MdesOrco H81F to VUAA1 (MdesOrco H81F): induced a response to VUAA1
